Test results published in PubChem BioAssay AID1259407 (Chemical Carcinogenesis Research Information System (CCRIS), 2018).
The source made the active and inactive calls. How the calls were made is not given here.

Test system: CCRIS mutagenicity, Ames/micronucleus/aberration tests
Test: CCRIS mutagenicity studies
[1] = Test System: AMES SALMONELLA TYPHIMURIUM, Strain/Indicator: TA98, Metabolic Activation: NONE, Method: STANDARD PLATE
[2] = Test System: AMES SALMONELLA TYPHIMURIUM, Strain/Indicator: TA100, Metabolic Activation: NONE, Method: STANDARD PLATE
[3] = Test System: AMES SALMONELLA TYPHIMURIUM, Strain/Indicator: TA102, Metabolic Activation: NONE, Method: STANDARD PLATE
[4] = Test System: AMES SALMONELLA TYPHIMURIUM, Strain/Indicator: TA98, Metabolic Activation: RAT, LIVER, S-9, AROCLOR 1254, Method: STANDARD PLATE
[5] = Test System: AMES SALMONELLA TYPHIMURIUM, Strain/Indicator: TA100, Metabolic Activation: RAT, LIVER, S-9, AROCLOR 1254, Method: STANDARD PLATE

For Cc1c(N(C)CS(=O)(=O)O)c(=O)n(-c2ccccc2)n1C, the mutagenic call (Test System: AMES SALMONELLA TYPHIMURIUM, Strain/Indicator: TA97A, Metabolic Activation: NONE, Method: STANDARD PLATE) was “inactive; negative”, the mutagenic call (Test System: AMES SALMONELLA TYPHIMURIUM, Strain/Indicator: TA97A, Metabolic Activation: RAT LIVER S-9, PHENOBARBITAL, Method: STANDARD PLATE) was “active; positive” and the mutagenic call (Test System: AMES SALMONELLA TYPHIMURIUM, Strain/Indicator: TA98, Metabolic Activation: GUINEA PIG, LIVER, S-9, PCB, Method: PREINCUBATION) was “inactive; negative”. For the same compound, the mutagenic call (Test System: AMES SALMONELLA TYPHIMURIUM, Strain/Indicator: TA98, Metabolic Activation: HAMSTER, LIVER, S-9, PCB, Method: PREINCUBATION) was “inactive; negative”, the mutagenic call (Test System: AMES SALMONELLA TYPHIMURIUM, Strain/Indicator: TA98, Metabolic Activation: MOUSE, LIVER, S-9, PCB, Method: PREINCUBATION) was “inactive; negative” and the mutagenic call [1] was “inactive; negative”. For the same compound, the mutagenic call (Test System: AMES SALMONELLA TYPHIMURIUM, Strain/Indicator: TA98, Metabolic Activation: RAT LIVER S-9, PHENOBARBITAL, Method: STANDARD PLATE) was “active; positive”, the mutagenic call (Test System: AMES SALMONELLA TYPHIMURIUM, Strain/Indicator: TA98, Metabolic Activation: RAT, LIVER, S-9, PCB, Method: PREINCUBATION) was “inactive; negative” and the mutagenic call (Test System: AMES SALMONELLA TYPHIMURIUM, Strain/Indicator: TA100, Metabolic Activation: GUINEA PIG, LIVER, S-9, PCB, Method: PREINCUBATION) was “inactive; negative”. The mutagenic call (Test System: AMES SALMONELLA TYPHIMURIUM, Strain/Indicator: TA100, Metabolic Activation: HAMSTER, LIVER, S-9, PCB, Method: PREINCUBATION) was “inactive; negative”, the mutagenic call (Test System: AMES SALMONELLA TYPHIMURIUM, Strain/Indicator: TA100, Metabolic Activation: MOUSE, LIVER, S-9, PCB, Method: PREINCUBATION) was “inactive; negative” and the mutagenic call [2] was “inactive; negative”. For the same compound, the mutagenic call (Test System: AMES SALMONELLA TYPHIMURIUM, Strain/Indicator: TA100, Metabolic Activation: RAT LIVER S-9, PHENOBARBITAL, Method: STANDARD PLATE) was “inactive; negative”, the mutagenic call (Test System: AMES SALMONELLA TYPHIMURIUM, Strain/Indicator: TA100, Metabolic Activation: RAT, LIVER, S-9, AROCLOR 1254, Method: PREINCUBATION) was “active; positive” and the mutagenic call (Test System: AMES SALMONELLA TYPHIMURIUM, Strain/Indicator: TA100, Metabolic Activation: RAT, LIVER, S-9, PCB, Method: PREINCUBATION) was “active; positive”. For the same compound, the mutagenic call [3] was “inactive; negative” and the mutagenic call (Test System: AMES SALMONELLA TYPHIMURIUM, Strain/Indicator: TA102, Metabolic Activation: RAT LIVER S-9, PHENOBARBITAL, Method: STANDARD PLATE) was “inactive; negative”.
For O=C(O)COc1cc(Cl)c(Cl)cc1Cl, the mutagenic call (End Point: IN VITRO CHROMOSOMAL ABERRATIONS, Test System: CHINESE HAMSTER OVARY CELLS, Metabolic Activation: NONE) was “inactive; negative”, the mutagenic call (End Point: IN VITRO CHROMOSOMAL ABERRATIONS, Test System: CHINESE HAMSTER OVARY CELLS, Metabolic Activation: RAT, LIVER, S-9, AROCLOR 1254) was “active; positive; precipitation occurred at all doses” and the mutagenic call (Test System: AMES SALMONELLA TYPHIMURIUM, Strain/Indicator: TA97, Metabolic Activation: NONE, Method: STANDARD PLATE) was “inactive; negative”. For the same compound, the mutagenic call (Test System: AMES SALMONELLA TYPHIMURIUM, Strain/Indicator: TA97, Metabolic Activation: RAT, LIVER, S-9, AROCLOR 1254, Method: STANDARD PLATE) was “inactive; negative”, the mutagenic call (Test System: AMES SALMONELLA TYPHIMURIUM, Strain/Indicator: TA98, Metabolic Activation: NONE) was “inactive; negative” and the mutagenic call [1] was “inactive; negative”. The mutagenic call (Test System: AMES SALMONELLA TYPHIMURIUM, Strain/Indicator: TA98, Metabolic Activation: RAT, LIVER, S-9, AROCLOR 1254) was “inactive; negative”, the mutagenic call [4] was “inactive; negative” and the mutagenic call (Test System: AMES SALMONELLA TYPHIMURIUM, Strain/Indicator: TA100, Metabolic Activation: NONE) was “inactive; negative”. The mutagenic call [2] was “inactive; negative”, the mutagenic call (Test System: AMES SALMONELLA TYPHIMURIUM, Strain/Indicator: TA100, Metabolic Activation: RAT, LIVER, S-9, AROCLOR 1254) was “inactive; negative” and the mutagenic call [5] was “inactive; negative”. The mutagenic call (Test System: AMES SALMONELLA TYPHIMURIUM, Strain/Indicator: TA102, Metabolic Activation: NONE) was “inactive; negative”, the mutagenic call [3] was “inactive; negative” and the mutagenic call (Test System: AMES SALMONELLA TYPHIMURIUM, Strain/Indicator: TA102, Metabolic Activation: RAT, LIVER, S-9, AROCLOR 1254) was “inactive; negative”. The mutagenic call (Test System: AMES SALMONELLA TYPHIMURIUM, Strain/Indicator: TA102, Metabolic Activation: RAT, LIVER, S-9, AROCLOR 1254, Method: STANDARD PLATE) was “inactive; negative”, the mutagenic call (Test System: AMES SALMONELLA TYPHIMURIUM, Strain/Indicator: TA104, Metabolic Activation: NONE) was “inactive; negative” and the mutagenic call (Test System: AMES SALMONELLA TYPHIMURIUM, Strain/Indicator: TA104, Metabolic Activation: RAT, LIVER, S-9, AROCLOR 1254) was “inactive; negative”.
With O=CN(O)c1ccc(Oc2ccccc2)cc1 the mutagenic call [2] was “inactive; negative” and the mutagenic call (Test System: AMES SALMONELLA TYPHIMURIUM, Strain/Indicator: TA100, Metabolic Activation: RAT, LIVER, S-9, KANECLOR 500, Method: STANDARD PLATE) was “active; positive”.
With Nc1ccc(/C=C/c2cccc(Cl)c2)cc1 the mutagenic call (Test System: AMES SALMONELLA TYPHIMURIUM, Strain/Indicator: TA98(1,8-DNP6), Metabolic Activation: NONE, Method: STANDARD PLATE) was “inactive; negative”, the mutagenic call (Test System: AMES SALMONELLA TYPHIMURIUM, Strain/Indicator: TA98(1,8-DNP6), Metabolic Activation: S-9, Method: STANDARD PLATE) was “active; positive” and the mutagenic call [1] was “active; positive”. The mutagenic call (Test System: AMES SALMONELLA TYPHIMURIUM, Strain/Indicator: TA98, Metabolic Activation: S-9, Method: STANDARD PLATE) was “active; positive”, the mutagenic call [2] was “inactive; negative” and the mutagenic call (Test System: AMES SALMONELLA TYPHIMURIUM, Strain/Indicator: TA100, Metabolic Activation: S-9, Method: STANDARD PLATE) was “active; positive”.
For Cc1ccc(C2CO2)cc1 (centres undefined), the mutagenic call (Test System: E. COLI, Strain/Indicator: WP2 UVRA, Metabolic Activation: NONE, Method: STANDARD PLATE) was “active; positive”.
Nc1ccc(F)cc1 was tested, and the mutagenic call (End Point: IN VITRO MICRONUCLEUS, Test System: CHL/IU CELLS, Metabolic Activation: RAT, LIVER, S-9, PHENOBARBITAL AND 5,6-BENZOFLAVONE) was “active; positive”, the mutagenic call (Test System: AMES SALMONELLA TYPHIMURIUM, Strain/Indicator: TA98, Metabolic Activation: HAMSTER, LIVER, S-9, AROCLOR 1254, Method: STANDARD PLATE) was “active; positive” and the mutagenic call [1] was “inactive; negative”. For the same compound, the mutagenic call [4] was “active; positive”, the mutagenic call (Test System: AMES SALMONELLA TYPHIMURIUM, Strain/Indicator: TA100, Metabolic Activation: HAMSTER, LIVER, S-9, AROCLOR 1254, Method: STANDARD PLATE) was “active; positive” and the mutagenic call [2] was “inactive; negative”. For the same compound, the mutagenic call [5] was “active; positive”, the mutagenic call (Test System: E. COLI, Strain/Indicator: WP2 UVRA, Metabolic Activation: NONE, Method: FLUCTUATION TEST) was “inactive; negative” and the mutagenic call (Test System: MOUSE LYMPHOMA, Strain/Indicator: L5178Y (TK+/TK-), Metabolic Activation: NONE, Method: SUSPENSION/PLATE) was “active; positive. reevaluation of results: equivocal”. The mutagenic call (Test System: Mouse lymphoma, Strain/Indicator: L5178Y (tk+/tk-), Metabolic Activation: Rat, Liver, S-9, Aroclor 1254, Method: Suspension/plate) was “inconclusive (previous evaluation equivocal)”.
